These results are taken from PubChem BioAssay AID504581 (National Center for Advancing Translational Sciences (NCATS), 2011).

For this data set, the system named is PBS pH 7.4 stability, 37 C, LC-MS/MS, 48 h. Briefly: Inhibitors of 12-hLO: PBS Stability Profiling. The conditions noted are these: at 2 µM; stronger effect = higher value. From the text: Assay Provider: Holman, T.R., University of California, Santa Cruz Grant #: MH08128301 Screening Center PI: Austin, C.P. Screening Center: NIH Chemical Genomics Center [NCGC] Human lipoxygenase 12hLO is a member of the closely related lipoxygenase family of enzymes which catalyze the site-specific oxidation of arachidonic acid to various hormone precursor molecules and as such is a candidate for drug development in a variety of disease areas, such as cancer and inflammation. After qHTS, hits were confirmed in follow-up assays, and leads were optimized through SAR. The resulting lead compound was further characterized through a battery ADME-Tox experiments, and this assay describes its stability in PBS buffer. The stability of the lead compound in PBS buffer is tested because this parameter has a significant impact on many ADME-concerned properties of drugs, such as uptake, distribution, transport, and eventually bioavailability.
2microM of compound is incubated in PBS buffer at pH 7; the reference compound is procaine. Compounds are incubated at 37 deg C for the pre-determined time periods and the when aliquots are removed. Samples are analyzed with LC-MS/MS.

Regarding `CC(=O)NC(c1cccs1)c1cc(Br)c2cccnc2c1O` (stereo unspecified), the percent remaining is 100%.
